One substance from patent publication US20250277030A1, “ANTI-NAPI2B ANTIBODIES AND METHODS OF USE” (Zymeworks BC Inc., priority 2022, published 2025) can be followed below.

Assay [1] addresses T1, human NaPi2b (Homo sapiens, UniProt O95436).
T1 construct: host or cells: HEK293-6e
T1 sequence (O95436 1-690): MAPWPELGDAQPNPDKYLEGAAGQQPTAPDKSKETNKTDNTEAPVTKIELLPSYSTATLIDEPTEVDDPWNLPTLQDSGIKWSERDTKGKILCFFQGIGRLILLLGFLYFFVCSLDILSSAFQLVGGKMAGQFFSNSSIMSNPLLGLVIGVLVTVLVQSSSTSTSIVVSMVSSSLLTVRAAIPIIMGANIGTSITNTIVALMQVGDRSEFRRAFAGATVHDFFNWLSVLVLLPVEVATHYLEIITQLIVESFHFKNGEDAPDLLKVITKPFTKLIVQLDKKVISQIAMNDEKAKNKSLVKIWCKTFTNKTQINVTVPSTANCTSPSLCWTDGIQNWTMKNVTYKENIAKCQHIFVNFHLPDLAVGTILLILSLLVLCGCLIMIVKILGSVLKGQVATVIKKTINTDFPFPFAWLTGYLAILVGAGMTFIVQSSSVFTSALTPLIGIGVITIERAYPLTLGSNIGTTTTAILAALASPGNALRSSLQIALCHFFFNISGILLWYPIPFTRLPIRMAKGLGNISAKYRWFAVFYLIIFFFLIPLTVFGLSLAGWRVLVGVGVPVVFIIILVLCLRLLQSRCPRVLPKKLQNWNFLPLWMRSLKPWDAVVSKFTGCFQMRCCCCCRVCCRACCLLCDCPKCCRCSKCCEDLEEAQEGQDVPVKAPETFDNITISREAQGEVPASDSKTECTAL
Put plainly: Flow cytometry binding to HEK293-6e cells transfected with human NaPi2b (Example 5). Particulars: transfected HEK293-6e cells. As for the experimental part: The binding cross-reactivity of humanized antibody variant v29456 to human, cynomolgus and mouse NaPi2b was assessed by flow cytometry using HEK293-6e transfected cells.
Briefly, HEK293-6e cells were transfected for ˜24 hours to transiently express human NaPi2b, cynomolgus or mouse NaPi2b, at 1 μg of DNA per 1 million cells. Following transfection, 50,000 cells per well were seeded in V-bottom 96-well plates and incubated with 200 nM of primary antibody for 18-24 hours at 4° C. to prevent internalization. Post-incubation, cells were washed and stained with anti-Human IgG Fc AF647 conjugate (Jackson Immuno Research Labs, West Grove, PA, Cat. No. 109-605-098, Lot. No. 124868) at 4° C. for 1 hour. Following staining and washing, fluorescence was detected by flow cytometry on BD LSRFortessa™ Cell Analyzer (BD Biosciences, Franklin Lake, NJ) with 10,000 minimum events collected per well. The AF647/APC-A GeoMean (fluorescence signal geometric mean, proportional to anti-Human AF647 binding) was calculated for the live singlet cell population for each primary antibody using FlowJo™ v8 software (BD Biosciences, Franklin Lake, NJ). The Bmax and Kd of each primary antibody were calculated using GraphPad Prism Version 9 (GraphPad Software, San Diego, CA)
(In general: A flow cytometer gives signals particle by particle.)

Assay [2] concerns HCC-78 cells. Briefly: Internalization by flow cytometry in HCC-78 cells. The class given is cell-based, human. Conditions: antibody 10 nM. As for the experimental part:
(§1) Briefly, antibodies were fluorescently labeled by coupling to a Fab fragment AF488 conjugate targeting anti-Human IgG Fe (Jackson Immuno Research Labs, West Grove, PA; Cat. No. 109-547-008) at a 1:1 molar ratio in PBS pH 7.4 (Thermo Fisher Scientific, Waltham, MA; Cat. No. 10010-023), for 24 hours at 4° C. Cells were seeded at 50,000 cells/well in RPMI 1640, ATCC modification (Thermo Fisher Scientific, Waltham, MA) supplemented with 10% fetal bovine serum (Thermo Fisher Scientific, Waltham, MA) in 48-well plates and incubated overnight under standard culturing conditions (37° C./5% CO2) to allow attachment. […] Following incubation, cells were dissociated, washed, and surface AF488 fluorescence was quenched using an anti-AF488 antibody (Life Technologies, Carlsbad, CA; Cat. No. A-11094) at 100 nM for 30 minutes at 4° C. […] (internalized fluorescence) was detected by flow cytometry on a BD LSRFortessa™ Cell Analyzer (BD Biosciences, Franklin Lake, NJ) with 1,000 minimum events collected per well. The AF488/FITC-A GeoMean (fluorescence signal geometric mean, proportional to anti-Human Fab AF488 labelling) was calculated for the live single cell population using FlowJo™ Version 10.8.1 (BD Biosciences, Franklin Lake, NJ) and plotted using GraphPad Prism Version 9 (GraphPad Software, San Diego, CA).

The subject of assay [3] is NCI-H441 cells. Briefly: Internalization by flow cytometry in NCI-H441 cells. The class given is cell-based, human. Conditions: antibody 10 nM. On the procedure: as §1
Assay [4] concerns the target T2, NaPi2b expressed on IGROV-1 cells (Homo sapiens, UniProt O95436).
T2 construct: IGROV-1 cells express endogenous NaPi2b at a high level; endogenous in cells; host or cells: IGROV-1
T2 sequence (O95436 1-690): T1 sequence (O95436 1-690)
Put plainly: Cellular binding to IGROV-1 cells by flow cytometry (Example 19). Particulars: NB = no binding (apparent Kd >150 nM). As for the experimental part:
(§2) Briefly, cells were seeded at 50,000 cells/well in conical-bottom 96-well plates and treated with test antibody for 24 hours at 4° C. to prevent internalization. Palivizumab (anti-RSV antibody, v22277) was included as a negative control. […] Following incubation, cells were washed and stained with anti-Human IgG Fc AF647 conjugate (Jackson Immuno Research Labs, West Grove, PA; Cat. No. 109-605-098) at 4° C. for 30 min. Following incubation and washing, fluorescence was detected by flow cytometry on a BD LSRFortessa™ Cell Analyzer (BD Biosciences, Franklin Lake, NJ) with 1,000 minimum events collected per well. The AF647/APC-A GeoMean (fluorescence signal geometric mean, proportional to anti-Human AF647 binding) was calculated for the live cell population using FlowJo™ Version 10.8.1 (BD Biosciences, Franklin Lake, NJ) and plotted for each test antibody using GraphPad Prism Version 9 (GraphPad Software, San Diego, CA).
(§3) The ability of the humanized antibody variants v38591 and v29456 to bind to NaPi2b expressed on cells was assessed on endogenous NaPi2b-expressing tumor cell lines IGROV-1 (ovarian adenocarcinoma) and TOV-21G (ovarian carcinoma) by flow cytometry. IGROV-1 and TOV-21G cells express endogenous NaPi2b at high and moderate levels, respectively, as described in Example 10.
(§4) Cellular binding was performed according to methods described in Example 13.

In assay [5] the target is T3, NaPi2b expressed on TOV-21G cells (Homo sapiens, UniProt O95436).
T3 construct: IGROV-1 and TOV-21G cells express endogenous NaPi2b at high and moderate levels, respectively; endogenous in cells; host or cells: TOV-21G
T3 sequence (O95436 1-690): T1 sequence (O95436 1-690)
Briefly: Cellular binding to TOV-21G cells by flow cytometry (Example 19). Particulars: NB = no binding (apparent Kd >150 nM). As for the experimental part: as §2, §3, §4

For “v22277: anti-RSV antibody palivizumab, negative control; has a heterodimeric Fc [reference compound]”, the “Binding to human NaPi2b, in words” value in assay [1] is listed as “did not bind”. The “Internalized Fluorescence Fold-Over Palivizumab” value in assay [2] (HCC-78, 5 hrs) was determined as 1.0 fold; in assay [2] (HCC-78, 24 hrs) it was 1.0 fold; in assay [3] (NCI-H441, 5 hrs) it was 1.0 fold; in assay [3] (NCI-H441, 24 hrs), 1.0 fold. Besides, the Kd in assay [4] and in assay [5] was above 150 nM in each case.
